Results on 2 compounds are retold here after PMC9445029, “A Cryptochrome adopts distinct moon- and sunlight states and functions as sun- versus moonlight interpreter in monthly oscillator entrainment” (Nature Communications, 2022).

The target in one test is T1, L-Cry (Pdu-L-Cry) (Platynereis dumerilii, UniProt Z9ZPX6J9J5).
T1 sequence (Z9ZPX6J9J5 1-565): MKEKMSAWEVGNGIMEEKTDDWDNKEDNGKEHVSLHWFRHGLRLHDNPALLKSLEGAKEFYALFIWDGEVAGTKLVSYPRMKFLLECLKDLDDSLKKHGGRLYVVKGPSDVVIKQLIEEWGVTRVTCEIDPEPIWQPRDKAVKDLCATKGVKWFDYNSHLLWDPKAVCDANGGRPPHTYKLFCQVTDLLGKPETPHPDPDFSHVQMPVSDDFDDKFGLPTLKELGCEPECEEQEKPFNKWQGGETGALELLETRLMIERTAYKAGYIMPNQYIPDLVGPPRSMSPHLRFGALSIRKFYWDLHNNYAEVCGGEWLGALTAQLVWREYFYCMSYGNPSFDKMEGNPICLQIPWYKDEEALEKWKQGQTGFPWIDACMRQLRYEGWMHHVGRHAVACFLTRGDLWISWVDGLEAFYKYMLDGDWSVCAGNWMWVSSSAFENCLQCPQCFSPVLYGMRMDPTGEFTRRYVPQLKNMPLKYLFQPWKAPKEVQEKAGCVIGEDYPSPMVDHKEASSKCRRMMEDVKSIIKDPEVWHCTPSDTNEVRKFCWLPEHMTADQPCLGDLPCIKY
Description: RP-HPLC of chromophore released from purified protein; UV/Vis spectroscopy. Type of test: binding. The note with it: co-purified from Sf9 cells; dark state oxidized FAD (maxima 450 and 475 nm), photoreduced to anionic radical; pH 8.0, 1 mM TCEP.

Test [1] concerns the target Platynereis dumerilii L-Cryptochrome (L-Cry), full length, N-terminally His6-tagged (1-567) (Platynereis dumerilii). Kind of test: SEC-MALS; purified dark-state L-Cry on a Superose 6 10/300 column, 0.4 ml/min, SEC buffer 25 mM Bis-Tris propane pH 8.0, 150 mM NaCl; molar mass about 130 kDa against 65.6 kDa for the monomer.

Consider `Cc1cc2nc3c(=O)[nH]c(=O)nc-3n(C[C@H](O)[C@H](O)[C@H](O)COP(=O)(O)OP(=O)(O)OC[C@H]3O[C@@H](n4cnc5c(N)ncnc54)[C@H](O)[C@@H]3O)c2cc1C` [Flavin Adenine Dinucleotide], for which, at L-Cry (Pdu-L-Cry), the “RP-HPLC of chromophore released from purified protein; UV/Vis spectroscopy” value is on record as “purified L-Cry binds Flavin Adenine Dinucleotide (FAD) as its chromophore”.
“Platynereis dumerilii L-Cryptochrome (L-Cry), full length, N-terminally His6-tagged (1-567) (natural protein)”: the stoichiometry N in test [1] worked out at 2.
